Measurements from publication PMC11257762, “Psoralen Isolated from the Roots of Dorstenia psilurus Welw. Modulate Th1/Th2 Cytokines and Inflammatory Enzymes in LPS-Stimulated RAW 264.7 Macrophages” (Mediators of Inflammation, 2024).
≈ marks a conversion by molar mass, not a printed value. Like-named read-outs stand apart in the source and are kept apart here. Marks after values point to notes of the source that are not given here.

Columns and labels:
[1] = tested on: IL-6; assay: Th1/Th2 cytokine measurement (cytometric bead array) in LPS-stimulated RAW 264.7 macrophages, IL-6; type: cell-based, mouse; conditions: 50 μM, 24 hr, LPS-induced RAW 264.7; increased from 156.96 pg/mL
Procedure: (§1) RAW 264.7 cells were cultured at a concentration of 2 × 10^5 cells/mL in a 48-well microplate and allowed to adhere for 24 hr. Subsequently, they were subjected to lipopolysaccharide (LPS) treatment at a concentration of 0.1 µg/mL, along with psoralen at concentrations of 5, 20, and 50 µM. […] Following an incubation period of 24 hr, the supernatant was collected, and the levels of pro-inflammatory Th1 cytokines (IFN-γ, TNF-α, and IL-2), as well as anti-inflammatory Th2 cytokines (IL-4, IL-6, and IL-10) were quantified. The experimental protocol adhered to the manufacturer's guidelines and utilized the BD TM cytometric beads array human Th1/Th2 cytokine kit (BD-Biosciences). Data acquisition was performed using a BD LSR FortessaTM cell analyzer flow cytometer.

[2] = tested on: IL-2; assay: Th1/Th2 cytokine measurement (cytometric bead array) in LPS-stimulated RAW 264.7 macrophages, IL-2; type: cell-based, mouse; conditions: 50 μM, 24 hr, LPS-induced RAW 264.7; reduced from 1.032 pg/mL
Procedure: as §1

[3] = target: T1, COX-1 (Mus musculus, UniProt P22437); assay: Fluorometric COX activity assay in LPS-stimulated RAW 264.7 cells, COX-1; type: cell-based; conditions: LPS 0.1 µg/mL, 24 hr, untreated control 95.19 µU/mg
T1 construct: endogenous in cells; host or cells: RAW 264.7 macrophages, LPS-stimulated
T1 sequence (P22437 27-602): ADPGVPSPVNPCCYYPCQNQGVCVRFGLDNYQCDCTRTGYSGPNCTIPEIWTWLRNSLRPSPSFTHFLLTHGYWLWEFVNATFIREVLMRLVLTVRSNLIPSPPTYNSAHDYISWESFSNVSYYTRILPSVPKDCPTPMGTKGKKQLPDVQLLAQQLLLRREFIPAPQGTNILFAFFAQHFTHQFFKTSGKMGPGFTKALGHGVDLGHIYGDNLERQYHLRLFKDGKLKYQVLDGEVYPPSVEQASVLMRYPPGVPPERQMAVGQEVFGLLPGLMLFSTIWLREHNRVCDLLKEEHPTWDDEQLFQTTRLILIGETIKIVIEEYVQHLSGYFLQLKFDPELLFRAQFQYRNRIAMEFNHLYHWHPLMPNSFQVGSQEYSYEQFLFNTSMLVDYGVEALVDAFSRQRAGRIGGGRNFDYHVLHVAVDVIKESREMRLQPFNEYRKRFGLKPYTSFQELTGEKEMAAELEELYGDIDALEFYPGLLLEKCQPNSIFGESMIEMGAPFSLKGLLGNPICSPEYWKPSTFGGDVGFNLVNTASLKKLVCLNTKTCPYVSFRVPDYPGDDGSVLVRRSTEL
Procedure: (§2) Evaluation of COX-1 and COX-2 enzyme activity was performed using the fluorometric COX activity assay kit provided by Biovision. RAW 264.7 cells were cultured at a density of 2 × 10^5 cells/mL in a 48-well microplate and allowed to adhere for a period of 24 hr. Subsequently, cells were treated with LPS at a concentration of 0.1 µg/mL and psoralen at concentrations of 5, 20, and 50 µM. The cyclooxygenase enzyme activity assay was performed after a 24 hr incubation period. To initiate the assay, cells were removed using TNE buffer containing Tris (40 mM), NaCl (150 mM), and EDTA (1 mM), followed by a washing step using 1x PBS. Cells were then resuspended in 1 mL of 1x PBS, transferred to a 1.5 mL tube, and subjected to centrifugation at 500x g for 3 min. The resulting pellet was resuspended in 0.5 mL of lysis buffer containing a protease inhibitor cocktail, followed by vortexing and incubation at 4°C for 5 min. Subsequently, the cell lysate was centrifuged at 12,000 x g for 3 min, and the supernatant was collected for the COX activity assay. The fluorometric cyclooxygenase activity assay kit provided by Biovision was utilized according to the manufacturer's instructions to assess COX activity. This assay incorporates specific inhibitors for COX-1 and COX-2 enzymes, allowing differentiation of their respective activities and those of other peroxidases.

[4] = target: T2, COX-2 (Mus musculus, UniProt Q05769); assay: Fluorometric COX activity assay in LPS-stimulated RAW 264.7 cells, COX-2; type: cell-based; conditions: LPS 0.1 µg/mL, 24 hr, untreated control 113.81 µU/mg
T2 construct: the supernatant was collected for the COX activity assay; endogenous in cells; host or cells: RAW 264.7 macrophages, LPS-stimulated
T2 sequence (Q05769 18-604): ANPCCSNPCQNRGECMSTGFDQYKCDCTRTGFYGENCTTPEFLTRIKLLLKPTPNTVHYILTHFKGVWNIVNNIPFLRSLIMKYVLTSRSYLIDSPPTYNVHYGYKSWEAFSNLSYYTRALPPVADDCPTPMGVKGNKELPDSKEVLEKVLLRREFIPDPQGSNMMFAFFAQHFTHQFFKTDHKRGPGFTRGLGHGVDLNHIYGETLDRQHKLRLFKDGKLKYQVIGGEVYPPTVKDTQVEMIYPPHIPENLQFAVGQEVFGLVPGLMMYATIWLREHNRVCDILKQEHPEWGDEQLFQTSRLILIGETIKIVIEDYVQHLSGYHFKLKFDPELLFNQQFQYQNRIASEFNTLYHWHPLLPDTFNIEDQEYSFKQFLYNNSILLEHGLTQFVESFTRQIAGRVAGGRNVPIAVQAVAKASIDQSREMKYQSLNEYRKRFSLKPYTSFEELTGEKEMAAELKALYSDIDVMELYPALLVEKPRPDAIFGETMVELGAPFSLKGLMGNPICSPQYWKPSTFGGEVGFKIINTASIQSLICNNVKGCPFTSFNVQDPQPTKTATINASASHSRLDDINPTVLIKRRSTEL
Procedure: as §2

[5] = tested on: IFN-γ; assay: Th1/Th2 cytokine measurement (cytometric bead array) in LPS-stimulated RAW 264.7 macrophages, IFN-γ; type: cell-based, mouse; conditions: 50 μM, 24 hr, LPS-induced RAW 264.7; reduced from 1.12 pg/mL
Procedure: as §1

[6] = tested on: TNF-α; assay: Th1/Th2 cytokine measurement (cytometric bead array) in LPS-stimulated RAW 264.7 macrophages, TNF-α; type: cell-based, mouse; conditions: 50 μM, 24 hr, LPS-induced RAW 264.7; reduced from 4,418.86 pg/mL
Procedure: as §1

[7] = target: T3, 15-LOX from G. max (Glycine max, UniProt P08170); assay: Soybean LOX inhibition assay (ferrous oxidation-xylenol orange); type: biochemical; conditions: linoleic acid 140 µM, pH 7.4, 25°C, mean ± SD
T3 sequence (P08170 1-839): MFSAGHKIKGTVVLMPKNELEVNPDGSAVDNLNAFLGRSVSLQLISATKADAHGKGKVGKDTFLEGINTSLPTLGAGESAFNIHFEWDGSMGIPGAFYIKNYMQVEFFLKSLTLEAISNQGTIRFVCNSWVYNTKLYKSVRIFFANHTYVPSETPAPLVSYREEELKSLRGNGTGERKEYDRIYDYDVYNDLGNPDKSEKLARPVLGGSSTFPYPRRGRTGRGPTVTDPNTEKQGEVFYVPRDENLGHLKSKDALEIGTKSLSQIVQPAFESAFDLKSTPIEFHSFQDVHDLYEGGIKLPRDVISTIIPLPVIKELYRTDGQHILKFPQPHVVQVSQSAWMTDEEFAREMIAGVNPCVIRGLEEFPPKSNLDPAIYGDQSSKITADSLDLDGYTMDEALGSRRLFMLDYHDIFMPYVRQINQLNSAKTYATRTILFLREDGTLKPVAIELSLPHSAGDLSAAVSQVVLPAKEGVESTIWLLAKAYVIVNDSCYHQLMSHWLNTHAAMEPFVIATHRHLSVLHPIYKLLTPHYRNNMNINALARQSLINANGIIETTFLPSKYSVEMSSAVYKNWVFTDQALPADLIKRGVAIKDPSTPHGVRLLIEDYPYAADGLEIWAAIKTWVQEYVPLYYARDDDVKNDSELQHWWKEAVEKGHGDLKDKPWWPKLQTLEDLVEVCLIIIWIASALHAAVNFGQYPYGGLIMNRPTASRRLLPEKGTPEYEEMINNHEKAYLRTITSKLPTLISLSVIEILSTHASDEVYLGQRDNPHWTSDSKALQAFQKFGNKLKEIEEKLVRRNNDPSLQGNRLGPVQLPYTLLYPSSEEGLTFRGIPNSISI
Procedure: The assay was conducted following a previously described methodology with minor adjustments. The assay is based on the measurement of the formation of the Fe3+/xylenol orange complex on a spectrophotometer at a wavelength of 560 nm. 15-LOX from G. max was incubated with samples or standard inhibitors at a temperature of 25°C for 5 min. The concentration ranges of the samples ranged from 200 to 1.56 µg/mL for extracts and fractions and from 100 to 0.78 µM for compounds. Subsequently, linoleic acid (at a final concentration of 140 µM) in Tris–HCl buffer (at a pH of 7.4 and a concentration of 50 mM), and the mixture was incubated at a temperature of 25°C for 20 min in the absence of light. The assay was concluded by adding 100 µL of FOX reagent, which consisted of sulfuric acid (at a concentration of 30 mM), xylenol orange (at a concentration of 100 µM), and iron (II) sulfate (at a concentration of 100 µM) in a methanol/water mixture (at a ratio of 9 : 1). For control, only the LOX solution and buffer were pipetted into the wells. The blanks (background) contained the LOX enzyme during incubation, but the substrate (linoleic acid) was added after the addition of the FOX reagent. […] The percentage inhibition was calculated using the following formula: % inhibition = ((Acontrol–Ablank)−(Asample−Ablank)/(Acontrol−Ablank)) ×100. Here, Acontrol represents the absorbance of the control well, Ablank represents the absorbance of the blank well, and Asample represents the absorbance of the sample well.

[8] = tested on: NO production in LPS-activated RAW 264.7 macrophages; assay: Inhibition of nitric oxide (NO) production in LPS-activated RAW 264.7 macrophages (Griess reagent); type: cell-based, mouse; conditions: for IC50: Mus musculus
Procedure: The mouse-derived macrophage cell line RAW 264.7, purchased from the American Type Culture Collection (ATCC TIB-71, Rockville, MD, USA), was cultured in DMEM medium supplemented with 10% FCS and 1% penicillin/streptomycin/fungizone (PSF) under conventional cell culture conditions at a temperature of 37°C and a carbon dioxide concentration of 5% in a controlled humid atmosphere. Routine maintenance in culture (passage) was performed following ATCC instructions.
The RAW 264.7 macrophage cells were introduced into 96 well microtiter plates at a density of 2 × 10^5 cells/mL. Subsequently, cells were subjected to activation through incubation in a medium consisting of 1 µg/mL LPS alone, acting as the control. Furthermore, lipopolysaccharide was combined with varying concentrations of samples dissolved in DMSO (concentration ranges were 200–1.56 µg/mL for extracts and fractions and 100–0.78 µM for compounds). […] The quantity of nitric oxide released from macrophages was assessed using Griess reagent as previously described. All experiments for the measurement of nitric oxide inhibition were conducted three times in triplicate.

[9] = tested on: IL-4; assay: Th1/Th2 cytokine measurement (cytometric bead array) in LPS-stimulated RAW 264.7 macrophages, IL-4; type: cell-based, mouse; conditions: 50 μM, 24 hr, LPS-induced RAW 264.7; increased from 0.81 pg/mL
Procedure: as §1

[10] = tested on: IL-10; assay: Th1/Th2 cytokine measurement (cytometric bead array) in LPS-stimulated RAW 264.7 macrophages, IL-10; type: cell-based, mouse; conditions: 50 μM, 24 hr, LPS-induced RAW 264.7; increased from 0.857 pg/mL
Procedure: as §1

[11] = tested on: NO production in LPS-stimulated RAW 264.7 murine macrophages; parameters: method as in Choi et al. [47]; conditions: isolated from Trachelospermum jasminoides, ref Choi et al. [47]; cited from earlier work
[12] = RAW264.7, LPS 1 µg/mL activated RAW 264.7 macrophage cells, mean ± SD, read-out: NO inhibition IC50

`O=c1ccc2cc3ccoc3cc2o1` [(1), psoralen] showed an IL-6 level [1] of 255.31 pg/mL, an IL-2 level [2] of 0.551 pg/mL and a COX-1 activity ([3]; psoralen 5 μM) of 44.35 µU/mg. It also gave a COX-1 activity ([3]; psoralen 20 μM) of 31.25 µU/mg, a COX-1 activity ([3]; psoralen 50 μM) of 22.73 µU/mg and a COX-2 activity ([4]; psoralen 5 μM) of 88.33 µU/mg. It also gave a COX-2 activity ([4]; psoralen 20 μM) of 58.1 µU/mg, a COX-2 activity ([4]; psoralen 50 μM) of 43.84 µU/mg and an IFN-γ level [5] of 0.56 pg/mL. The TNF-α level [6] was 1,032.66 pg/mL, the IC50 [7] was 18.4 µM and the IC50 [8, 12] was 1.19 ± 0.45 µg/mL (≈ 6.39 µM). For the same compound, the IL-4 level [9] was 2.22 pg/mL and the IL-10 level [10] was 1.122 pg/mL.
In the case of `CC[C@H](CC[C@@H](C)[C@H]1CC[C@H]2[C@@H]3CC=C4C[C@@H](O[C@@H]5O[C@H](CO)[C@@H](O)[C@H](O)[C@H]5O)CC[C@]4(C)[C@H]3CC[C@]12C)C(C)C` [(3), β-sitosterol glucoside], the IC50 [7] is given as 25.3 µM, the “Reduction of NO production” value [11] is given as 72.8% and the IC50 [8, 12] is given as 26.1 ± 3.01 µg/mL (≈ 45.3 µM).
For `COc1ccc2c(c1)c(CC(=O)O)c(C)n2C(=O)c1ccc(Cl)cc1` [Indomethacin, indomethacin, reference compound], the IC50 ([8]; RAW264.7, read-out: NO inhibition IC50) was 3.79 ± 0.88 µg/mL (≈ 10.6 µM).
In the case of “octadecanyl-3[4-hydroxyphenyl]-prop-2-enoate [(2)]”, the “15-LOX inhibition IC50” value [7] is reported as 35.57 ± 2.35^j μg/mL and the “NO inhibition IC50” value ([8]; LPS 1 µg/mL activated RAW 264.7 macrophage cells, mean ± SD) is reported as 39.41 ± 2.29^g μg/mL.
